For test [1], the system named is MCF7-WT cells (MCF7 ER-alpha wildtype). Briefly: In vitro proliferation (viability) assay, MCF7-WT cells. Type of test: cell-based. The note with it: Homo sapiens, MCF7; CellTiter-Glo, day 6 vs day 0; average ± standard deviation; free base and/or salt forms; read-out: MCF7 WT GI50. Here is the method:
(§1) MCF7 BUS cells (Coser, et al., (2003) PNAS 100(24): 13994-13999) were maintained in Dulbecco's Modified Eagle Medium supplemented with 10% FBS, 4 mM L-glutamine and 1× non-essential amino acids. Lenti-X 293T cells (Clontech, Cat #632180) were routinely cultured in Dulbecco's Modified Eagle Medium supplemented with 10% FBS.
(§2) The QuikChange II XL Site-Directed Mutagenesis Kit (Agilent Technologies, Cat #200523) was used to generate Y537S, Y537C, Y537N and D538G mutations within the ERα exon 8. Wild-type ESR1 cDNA (GeneCopoeia Inc., Cat# GC-A0322, accession no. NM 000125) was used as a template with the following mutagenesis primers (where the underlined nucleotides represent site mutations); Y537S: F-AAGAACGTGGTGCCCCTCTCTGACCTGCTGCTGGAGATG (SEQ ID NO: 1), R-CATCTCCAGCAGCAGGTCAGAGAGGGGCACCACGTTCTT (SEQ ID NO: 2); Y537N: F-AAGAACGTGGTGCCCCTCAATGACCTGCTGCTGGAGATG (SEQ ID NO: 3), R-CATCTCCAGCAGCAGGTCATTGAGGGGCACCACGTTCTT (SEQ ID NO: 4); Y537C: F-AAGAACGTGGTGCCCCTCTGTGACCTGCTGCTGGAGATG (SEQ ID NO: 5), R-CATCTCCAGCAGCAGGTCACAGAGGGGCACCACGTTCTT (SEQ ID NO: 6); D538G: F-AACGTGGTGCCCCTCTATGGCCTGCTGCTGGAGATGCTG (SEQ ID NO: 7), R-CAGCATCTCCAGCAGCAGGCCATAGAGGGGCACCACGTT (SEQ ID NO: 8). WT and mutant ESR1 cDNAs were cloned into the designation lentiviral vector pLenti6.3/V5-Dest (Invitrogen, Cat #V533-06). To make lentivirus, DNAs (WT and mutant ESR1) were co-transfected with packaging plasmids into Lenti-X 293T cells using TransIT (Mirus, Cat #MIR 2700). 48 h post-transfection, virus containing media was filtered and added to MCF7 cells in the presence of 8 µg/ml polybrene overnight. Two days following infection, cells were placed under selection with 10 µg/ml blasticidin for 2 weeks for stable expression.
(§3) MCF7-WT and -Y537S cells were seeded at 1500 cells/well in black-walled 96-well plates (assay plates, Costar, Cat #3904). In parallel, cells were also seeded in a separate 96-well plate (8 wells/cell line, control plate) for which a CTG (CellTiter-Glo® Luminescent Viability Assay, Promega, Cat #G7572) was measured the following day (day 0 reading). The day 0 reading was used for the GI50 calculation at the termination of the experiment. The day following seeding, compounds were added to assay plates. Briefly, a 1:4 serial dilution was prepared in DMSO at 200× final concentration for a total of 10 concentrations (9 dilutions containing compound and one is DMSO only). Serially diluted compounds were pipetted into medium to prepare a compound-medium mix at 10× final concentration. 10 μl of compound-medium mix was added to MCF7-WT and -Y537S cells at 3 wells/concentration (triplicate for each concentration). On day 3, media/compound was removed and replaced with fresh media/compound as described above. On day 6, CTG was measured and compared to day 0 readings from control plate to assess GI50.
On the technique in general: In ATP-based viability assays light output follows the ATP content of the culture.

In test [2] the test system is MCF7-Y537S cells (MCF7 ER-alpha Y537S mutant). Briefly: In vitro proliferation (viability) assay, MCF7-Y537S cells. Type of test: cell-based. Particulars: Homo sapiens, MCF7; CellTiter-Glo, day 6 vs day 0; average ± standard deviation; free base and/or salt forms; read-out: MCF7 Y537S GI50. How it is done:
as §1, §2, §3

The source of these data is patent US20180141913A1 (EISAI R & D MANAGEMENT CO., LTD., priority 2016, published 2018).

The GI50 is the concentration at which growth is held to half of that of the control.

`CC/C(=C(/c1ccc(OCCNC/C=C/C(=O)O)cc1)c1ccc2[nH]ncc2c1)c1ccccc1` [Compound 73, (E)-4-((2-(4-((E)-1-(1H-indazol-5-yl)-2-phenylbut-1-en-1-yl)phenoxy)ethyl)amino)but-2-enoic acid]: the GI50 in test [1] came out at 7.34 ± 0.58 nM; in test [2] it was 155 ± 60.1 nM.

For the compound `O=C(/C=C/CNCCOc1ccc(/C(=C(\c2ccccc2)C2CCC2)c2ccc3[nH]ncc3c2)cc1)N1CCCC1` [Compound 35], the GI50 in test [1] is 3.06 ± 0.25 nM; in test [2] it was 27.3 ± 19.9 nM.

With `O=C(/C=C/CNCCOc1ccc(/C(=C(/CC(F)(F)F)c2ccccc2)c2ccc3[nH]ncc3c2)cc1)N1CCCC1` [Compound 14, (E)-1-(pyrrolidin-1-yl)-4-((2-(4-((E)-4,4,4-trifluoro-1-(1H-indazol-5-yl)-2-phenylbut-1-en-1-yl)phenoxy)ethyl)amino)but-2-en-1-one], the GI50 in test [1] came to 1.73 ± 0.14 nM; in test [2], 7.65 ± 3.38 nM.

On to `O=C(/C=C/CNCCOc1ccc(/C(=C(/CC(F)(F)F)c2ccccc2)c2ccc3[nH]nc(F)c3c2)cn1)N1CCOCC1` [Compound 18, (E)-1-morpholino-4-(2-(5-((Z)-4,4,4-trifluoro-1-(3-fluoro-1H-indazol-5-yl)-2-phenylbut-1-enyl)pyridin-2-yloxy)ethylamino)but-2-en-1-one], for which the values for the GI50 in test [1] and in test [2] were 0.72 ± 0.24 nM and 4.91 ± 0.65 nM, respectively.

Regarding `CNC(=O)/C=C/CNCCOc1ccc(/C(=C(/CC(F)(F)F)c2ccc(F)cc2Cl)c2ccc3[nH]nc(F)c3c2)cc1` [Compound 47, (E)-4-((2-(4-((E)-2-(2-chloro-4-fluorophenyl)-4,4,4-trifluoro-1-(3-fluoro-1H-indazol-5-yl)but-1-en-1-yl)phenoxy)ethyl)amino)-N-methylbut-2-enamide], the values for the 50% growth inhibitory concentration (GI50) in test [1] and in test [2] were 0.64 ± 0.4 nM and 7.25 ± 8.77 nM, respectively.

As for `CNC(=O)/C=C/CNCCOc1ccc(/C(CC(F)(F)F)=C(\c2ccccc2)c2ccc3[nH]nc(F)c3c2)cn1` [Compound 5, (E)-N-methyl-4-((2-((5-((E)-4,4,4-trifluoro-1-(3-fluoro-1H-indazol-5-yl)-1-phenylbut-1-en-2-yl)pyridin-2-yl)oxy)ethyl)amino)but-2-enamide], the GI50 in test [1] was 88.5 ± 42.7 nM; in test [2], 180 ± 227 nM.

Take `CNC(=O)/C=C/CNCCOc1ccc(/C(=C(/CCCl)c2ccccc2)c2ccc3[nH]nc(F)c3c2)cc1` [Compound 66, (E)-4-((2-(4-((E)-4-chloro-1-(3-fluoro-1H-indazol-5-yl)-2-phenylbut-1-en-1-yl)phenoxy)ethyl)amino)-N-methylbut-2-enamide]: the results for the GI50 in test [1] and in test [2] were 437 ± 55.2 nM and above 10000 nM, respectively.

In the case of `CC/C(=C(/c1ccc(OCCNC/C=C/C(=O)NC)nc1)c1ccc2[nH]ncc2c1)c1ccccc1` [Compound 28, (E)-4-((2-((5-((Z)-1-(1H-indazol-5-yl)-2-phenylbut-1-en-1-yl)pyridin-2-yl)oxy)ethyl)amino)-N-methylbut-2-enamide], the results for the GI50 in test [1] and in test [2] were 4.12 ± 1.6 nM and 9.08 ± 5.26 nM, respectively.

Take `CN(C)C(=O)CCCNCCOc1ccc(/C(=C(/CC(F)(F)F)c2ccccc2)c2ccc3[nH]nc(F)c3c2)cc1` [Compound 1, (E)-N,N-dimethyl-4-((2-(4-(4,4,4-trifluoro-1-(3-fluoro-1H-indazol-5-yl)-2-phenylbut-1-en-1-yl)phenoxy)ethyl)amino)butanamide]: the figures for the GI50 in test [1] and in test [2] were 0.36 ± 0.16 nM and 3.79 ± 1.92 nM, respectively.

For the compound `CNC(=O)/C=C/CNCCOc1ccc(/C(=C(/CC(F)(F)F)c2ccc(F)cc2Cl)c2ccc3[nH]ncc3c2)cn1` [Compound 58, (E)-4-((2-((5-((Z)-2-(2-chloro-4-fluorophenyl)-4,4,4-trifluoro-4,4,4-trifluoro-1-(1H-indazol-5-yl)but-1-en-1-yl)pyridin-2-yl)oxy)ethyl)amino)-N-methylbut-2-enamide], the figures for the GI50 in test [1] and in test [2] were 0.33 ± 0.12 nM and 3.97 ± 2.25 nM, respectively.

For the compound `CNC(=O)/C=C/CNCCOc1ccc(/C(=C(/CC(F)(F)F)c2ccc(F)cc2Cl)c2ccc3[nH]ncc3c2)cc1` [Compound 46, (E)-4-((2-(4-((E)-2-(2-chloro-4-fluorophenyl)-4,4,4-trifluoro-1-(1H-indazol-5-yl)but-1-en-1-yl)phenoxy)ethyl)amino)-N-methylbut-2-enamide], the GI50 in test [1] came out at 1.38 ± 0.44 nM; in test [2], 13.8 ± 5.1 nM.

On to `O=C(CCCNCCOc1ccc(/C(=C(/CC(F)(F)F)c2ccccc2)c2ccc3[nH]nc(F)c3c2)cc1)N1CCCC1` [Compound 41, (E)-1-(pyrrolidin-1-yl)-4-((2-(4-(4,4,4-trifluoro-1-(3-fluoro-1H-indazol-5-yl)-2-phenylbut-1-en-1-yl)phenoxy)ethyl)amino)butan-1-one], for which the concentration for 50% growth inhibition (GI50) in test [1] was determined as 0.24 ± 0.04 nM; in test [2], 9.38 ± 7.61 nM.

Regarding `CNC(=O)/C=C/CNCCOc1cnc(/C(=C(/CC(F)(F)F)c2ccccc2)c2ccc3[nH]nc(F)c3c2)cn1` [Compound 74, (E)-N-methyl-4-((2-((5-((Z)-4,4,4,4-trifluoro-1-(3-fluoro-1H-indazol-5-yl)-2-phenylbut-1-en-1-yl)pyrazin-2-yl)oxy)ethyl)amino)but-2-enamide], the values for the GI50 in test [1] and in test [2] were 2.47 ± 0.18 nM and 29.4 ± 11.5 nM, respectively.

For the compound `CC/C(=C(/c1ccc(OCCNCCCC(=O)N(C)C)cc1)c1ccc2[nH]ncc2c1)c1ccccc1` [Compound 4, (E)-4-(2-(4-(1-(1H-indazol-5-yl)-2-phenylbut-1-enyl)phenoxy)ethylamino)-N,N-dimethylbutanamide], the figures for the GI50 in test [1] and in test [2] were 4.09 ± 2.74 nM and 46.4 ± 23.2 nM, respectively.

Turning to `CNC(=O)/C=C/CNCCOc1ccc(/C(=C(/CCO)c2ccccc2)c2ccc3[nH]nc(F)c3c2)cc1` [Compound 64, (E)-4-((2-(4-((E)-1-(3-fluoro-1H-indazol-5-yl)-4-hydroxy-2-phenylbut-1-en-1-yl)phenoxy)ethyl)amino)-N-methylbut-2-enamide], the GI50 in test [1] came out at 153 ± 27.4 nM; in test [2], 673 ± 167 nM.

In the case of `CC/C(=C(/c1ccc(OCCNC/C=C/C(=O)NC)cc1)c1ccc2[nH]nc(F)c2c1)c1ccc(F)cc1Cl` [Compound 48, (E)-4-((2-(4-((E)-2-(2-chloro-4-fluorophenyl)-1-(3-fluoro-1H-indazol-5-yl)but-1-en-1-yl)phenoxy)ethyl)amino)-N-methylbut-2-enamide], the GI50 was 0.8 ± 0.14 nM in test [1] and 8.25 ± 2.6 nM in test [2].

`O=C1NCCC1CCNCCOc1ccc(/C(=C(/CC(F)(F)F)c2ccccc2)c2ccc3[nH]nc(F)c3c2)cn1` (centres unmarked) [Compound 53, (Z)-3-(2-((2-((5-(4,4,4-trifluoro-1-(3-fluoro-1H-indazol-5-yl)-2-phenylbut-1-en-1-yl)pyridin-2-yl)oxy)ethyl)amino)ethyl)pyrrolidin-2-one]: the GI50 in test [1] came out at 0.3 nM; in test [2], 1.8 nM.

Consider `CC/C(=C(/c1ccc(OCCNC/C=C/C(=O)NC)cc1)c1ccc2[nH]ncc2c1)c1ccccc1` [Compound 50, (E)-4-((2-(4-((E)-1-(1H-indazol-5-yl)-2-phenylbut-1-en-1-yl)phenoxy)ethyl)amino)-N-methylbut-2-enamide], for which the figures for the GI50 in test [1] and in test [2] were 4 ± 1.16 nM and 98.5 ± 81.5 nM, respectively.

With `CNC(=O)/C=C/CNCCOc1ccc(/C(=C(/CCOC)c2ccccc2)c2ccc3[nH]nc(F)c3c2)cc1` [Compound 65, (E)-4-((2-(4-((E)-1-(3-fluoro-1H-indazol-5-yl)-4-methoxy-2-phenylbut-1-en-1-yl)phenoxy)ethyl)amino)-N-methylbut-2-enamide], the 50% growth inhibitory concentration (GI50) in test [1] worked out at 58.3 ± 48.1 nM; in test [2] it was 310 ± 139 nM.
